The subject of test [1] is bovine muscle progenitor cells. The test can be described thus: Serum-free myogenic differentiation with or without Notch pathway inhibition, brightfield microscopy (Example 5, FIG. 3). Format: cell-based. On the procedure: Myogenic progenitor cells as disclosed in Example 2 were plated in Matrigel-coated (1:200 in PBS) plates at a seeding density of 40 k cells/cm^2 and cultured for 24 h in a serum-free proliferation medium as disclosed in Example 2. Myogenic differentiation was induced by adding an exemplary serum-free differentiation medium (Table 3) in the presence and absence of DAPT (gamma-Secretase inhibitor #ab120633, abcam) at 0 μM (absence of DAPT; control medium), 1 μM, 5 μM and 10 μM. Cells were imaged with brightfield microscopy and the differentiation phenotypes were compared.

For test [2], the system named is Bovine muscle progenitor cells. The test can be described thus: Serum-free myogenic differentiation of bovine muscle progenitor cells into myocytes (Example 3, FIG. 1 and 2). It is filed as cell-based, Bos taurus. To be noted: cells previously proliferated in serum-free proliferation medium, one inducer per medium (lactate 10 mM, LPA 5 uM, oxytocin 50 nM or glucagon 1 uM), different basal formulations. On the procedure:
The DMEM/F12 1:1 or 10:1 or 1:0 or alpha-MEM or M199 medium was supplemented with albumin (recombinant human albumin from Richcore) at 0.5 mg/ml, insulin (recombinant human insulin, 10-365 from Peprotech) at 19.4 ug/ml, transferrin (recombinant human transferrin, 10-366 from Peprotech) at 10.7 ug/ml, sodium selenite (S5261 from SigmaAldrich) at 0.014 ug/ml, Ethanolamine from Sigma Aldrich cat nr E9508 at 4 ug/ml, ascorbic acid (L-ascorbic acid 2-phosphate sesquimagnesium salt hydrate, A8960 from SigmaAldrich) at 115.22 ug/ml, EGF (recombinant human EGF, AF-100-15 from Peprotech) at 10 ng/ml and one of the following inducers: lactate (Sodium L-lactate, 71718 from SigmaAldrich) at 10 mM, LPA (Oleoyl-L-α-lysophosphatidic acid sodium salt, L7260 from SigmaAldrich) at 5 uM, oxytocin (06379 from SigmaAldrich) at 50 nM, or glucagon (G2044 from SigmaAldrich) at 1 uM.
Bovine muscle progenitor cells were isolated from a bovine muscle tissue (Bos taurus) and sorted based on their positive expression of CD29 as previously described (Ding et al., Sci. Rep., 17(8): 10808 (2018)). Muscle progenitor cells were propagated in a serum-free proliferation medium for at least 8 population doublings prior to differentiation. […]

For the compound `C[C@H](NC(=O)Cc1cc(F)cc(F)c1)C(=O)N[C@H](C(=O)OC(C)(C)C)c1ccccc1` [DAPT], in test [1] (DAPT 1 uM, 5 uM and 10 uM, serum-free differentiation medium of Table 3 (lactate 10 mM), FIG. 3), the “myogenic differentiation of bovine muscle progenitor cells into myocytes compared to control medium without DAPT” value is “improved myogenic differentiation”. The “number of cells that fuse into myotubes” value in test [1] (DAPT added during myogenic differentiation) is recorded as “increases the number of cells that fuse into myotubes”. On to `C[C@H](O)C(=O)[O-].[Na+]` [lactate, Sodium L-lactate], for which the “induction of serum-free myogenic differentiation” value in test [2] was “induction of serum-free myogenic differentiation could be achieved”.

Values taken from patent US20240010984A1, “SERUM-FREE MEDIUM FOR DIFFERENTIATION OF A PROGENITOR CELL” (Mosa Meat B.V., priority 2020, published 2024).
